The term IC50 denotes the midpoint of a concentration-inhibition curve. A higher IC50 goes with a need for much substance.

This assay deals with T1, human IL-17A (Homo sapiens, UniProt Q16552).
T1 construct: purchased R&D Systems 7955-IL/CF
T1 sequence (Q16552 24-155): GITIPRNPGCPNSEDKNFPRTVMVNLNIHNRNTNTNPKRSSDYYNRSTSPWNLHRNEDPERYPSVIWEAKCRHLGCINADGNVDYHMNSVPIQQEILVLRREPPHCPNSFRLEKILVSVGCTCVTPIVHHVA
Put plainly: IL-17A AlphaLISA competition assay (block of IL-17A binding to its receptor IL-17RA). As to conditions: mean IC50 (n≥2), block of IL-17A binding to IL-17RA. The method in brief: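 Bead-based AlphaLISA competition in PBS with 0.05% Tween-20 and 0.1% BSA: compound first meets human IL-17A (7.5 nM stock) for 30 min, then IL-17RA/Fc (5 nM stock) for 90 min, all at room temperature, before acceptor/donor bead capture. IC50 fitted 4-parameter, DMSO and 4 μM reference inhibitor as controls; at least duplicate.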
For orientation: Bead proximity is the source of the signal in Alpha formats.
Take `CCc1nocc1C(=O)N[C@H](C(=O)Nc1cc([C@@H](COC)N2C[C@@H](C(F)(F)F)NC2=O)ccn1)[C@H]1CCCC(F)(F)C1` (single isomer, unassigned) [Example 307]: the IC50 was 51 nM.
`CCn1nccc1C(=O)N[C@H](C(=O)Nc1cc([C@@H](COC)N2C[C@@H](C(F)(F)F)NC2=O)ccn1)[C@H]1CCCC(F)(F)C1` (single isomer, unassigned) [Example 308] yielded an IC50 of 74 nM.
Take `COC[C@H](c1ccnc(NC(=O)[C@@H](NC(=O)c2ccnn2C(C)C)[C@H]2CCCC(F)(F)C2)c1)N1C[C@@H](C(F)(F)F)NC1=O` (single isomer, unassigned) [Example 309]: the half-maximal inhibitory concentration (IC50) is 98 nM.
Take `CC(C)(C)OC(=O)N[C@H](C(=O)Nc1cc(C(NC(=O)CCC(F)(F)F)C2CC2)ccn1)[C@H]1CC[C@H](C)CC1` (single isomer, unassigned; diastereomer 1) [Example 71]: the IC50 was 197 nM.
As to `CC(C)(C)OC(=O)N[C@H](C(=O)Nc1cc(C(NC(=O)CCC(F)(F)F)C2CC2)ccn1)C1CCC(F)(F)CC1` (single isomer, unassigned; diastereomer 1) [Example 72], the IC50 is 547 nM. Compared with the last compound, the IC50 is about 2.8-fold higher.
As for `COCC(NC(=O)CCC(F)(F)F)c1ccnc(NC(=O)[C@@H](NC(=O)OC(C)(C)C)C2CCC(F)(F)CC2)c1` (single isomer, unassigned; diastereomer 1) [Example 131], the IC50 stood at 680 nM.
`CC(C)(C)OC(=O)NC(C(=O)Nc1cc(CN2C[C@@H](C(F)(F)F)NC2=O)ccn1)C1CCC(F)(F)CC1` (stereo in doubt) [Example 6, Tert-butyl N-[(1S)-1-(4,4-difluorocyclohexyl)-2-oxo-2-[[4-[[(4S)-2-oxo-4-(trifluoro-methyl)imidazolidin-1-yl]methyl]-2-pyridyl]amino]ethyl]carbamate] registered an IC50 of 566 nM. This IC50 and that of the compound before are within 1.5-fold of each other.
`O=C(N[C@H](C(=O)Nc1cc(CN2C[C@@H](C(F)(F)F)NC2=O)ccn1)C1CCC(F)(F)CC1)OCc1ccccc1` (stereo in doubt) [Example 10, Benzyl ((S)-1-(4,4-difluorocyclohexyl)-2-oxo-2-((4-(((S)-2-oxo-4-(trifluoromethyl)imidazolidin-1-yl)methyl)pyridin-2-yl)amino)ethyl)carbamate] had an IC50 of 273 nM.
`CCC[C@H](c1ccnc(NC(=O)C(NC(=O)c2nocc2CC)C2CCC(F)(F)CC2)c1)N1C[C@@H](C(F)(F)F)NC1=O` (stereo in doubt) [Example 158, N—((S)-1-(4,4-difluorocyclohexyl)-2-oxo-2-((4-((R)-1-((S)-2-oxo-4-(trifluoromethyl)imidazolidin-1-yl)butyl)pyridin-2-yl)amino)ethyl)-4-ethylisoxazole-3-carboxamide]: the IC50 is 18 nM.
Under `CCc1conc1C(=O)NC(C(=O)Nc1cc([C@@H](C(C)C)N2C[C@@H](C(F)(F)F)NC2=O)ccn1)C1CCC(F)(F)CC1` (stereo in doubt) [Example 159, N—((S)-1-(4,4-difluorocyclohexyl)-2-((4-((R)-2-methyl-1-((S)-2-oxo-4-(trifluoromethyl)imidazolidin-1-yl)propyl)pyridin-2-yl)amino)-2-oxoethyl)-4-ethylisoxazole-3-carboxamide] stands 30 nM.
On to `Cn1nccc1C(=O)NC(C(=O)Nc1cc(C(C)(C)N2C[C@@H](C(F)(F)F)NC2=O)ccn1)C1CCC(F)(F)CC1` (stereo in doubt) [Example 172, N—((S)-1-(4,4-difluorocyclohexyl)-2-oxo-2-((4-(2-((S)-2-oxo-4-(trifluoro-methyl)imidazolidin-1-yl)propan-2-yl)pyridin-2-yl)amino)ethyl)-1-methyl-1H-pyrazole-5-carboxamide], for which the IC50 worked out at 1170 nM.
In turn, `CCc1oncc1C(=O)NC(C(=O)Nc1cc([C@@H](COC)N2CC(F)(F)CNC2=O)ccn1)C1CCC(F)(F)CC1` (stereo in doubt) [Example 176, N—((S)-2-((4-((S)-1-(5,5-difluoro-2-oxotetrahydropyrimidin-1(2H)-yl)-2-methoxyethyl)pyridin-2-yl)amino)-1-(4,4-difluorocyclohexyl)-2-oxoethyl)-5-ethylisoxazole-4-carboxamide] gave an IC50 of 57 nM.
Under `CCc1nonc1C(=O)NC(C(=O)Nc1cc(C(CC)NC(=O)CCC(F)(F)F)ccn1)C1CCC(F)(F)CC1` (stereo in doubt) [Example 207, N-((1S)-1-(4,4-difluorocyclohexyl)-2-oxo-2-((4-(1-(4,4,4-trifluorobutan-amido)propyl)pyridin-2-yl)amino)ethyl)-4-ethyl-1,2,5-oxadiazole-3-carboxamide] stands 350 nM; under `CCc1conc1C(=O)NC(C(=O)Nc1cc([C@@H](CC)N2C[C@@H](C(F)(F)F)NC2=O)ccn1)C1CCC(F)(F)CC1` (stereo in doubt) [Example 208, N—((S)-1-(4,4-difluorocyclohexyl)-2-oxo-2-((4-((R)-1-((S)-2-oxo-4-(trifluoromethyl)imidazolidin-1-yl)propyl)pyridin-2-yl)amino)ethyl)-4-ethylisoxazole-3-carboxamide], 31 nM.
To `CCc1nocc1C(=O)NC(C(=O)Nc1cc(CC2=C[C@@H](C(F)(F)F)NC2=O)ccn1)C1CCC(F)(F)CC1` (stereo in doubt) [Example 216, N-((1S)-1-(4,4-difluorocyclohexyl)-2-oxo-2-((4-((2-oxo-5-(trifluoromethyl)-2,5-dihydro-1H-pyrrol-3-yl)methyl)pyridin-2-yl)amino)ethyl)-3-ethylisoxazole-4-carboxamide] belongs 137 nM; to `CCc1ncoc1C(=O)NC(C(=O)Nc1cc(C[C@H]2C[C@@H](C(F)(F)F)NC2=O)ccn1)C1CCC(F)(F)CC1` (stereo in doubt) [Example 217, N—((S)-1-(4,4-difluorocyclohexyl)-2-oxo-2-((4-(((3S,5S)-2-oxo-5-(trifluoro-methyl)pyrrolidin-3-yl)methyl)pyridin-2-yl)amino)ethyl)-4-ethyloxazole-5-carboxamide], 465 nM; to `CCn1nccc1C(=O)NC(C(=O)Nc1cc(C[C@H]2C[C@@H](C(F)(F)F)NC2=O)ccn1)C(C1CC1)C1CC1` (stereo in doubt) [Example 230, N—((S)-1,1-dicyclopropyl-3-oxo-3-((4-(((3S,5S)-2-oxo-5-(trifluoromethyl)-pyrrolidin-3-yl)methyl)pyridin-2-yl)amino)propan-2-yl)-1-ethyl-1H-pyrazole-5-carboxamide], 96 nM.
The compound `CC(C)(C)OC(=O)N[C@H](C(=O)Nc1cc(CN2C[C@@H](C(F)(F)F)NC2=O)ccn1)[C@H]1CC[C@H](C)CC1` [Example 1, Tert-butyl ((S)-1-((1r,4S)-4-methylcyclohexyl)-2-oxo-2-((4-(((S)-2-oxo-4-(trifluoro-methyl)imidazolidin-1-yl)methyl)pyridin-2-yl)amino)ethyl)carbamate] gave an IC50 of 148 nM. Against the preceding compound, the IC50 is about 1.5-fold higher.
As for `C[C@H]1CC[C@H]([C@H](NC(=O)c2nonc2C2CC2)C(=O)Nc2cc(CN3C[C@@H](C(F)(F)F)NC3=O)ccn2)CC1` [Example 2, 4-Cyclopropyl-N—((S)-1-((1r,4S)-4-methylcyclohexyl)-2-oxo-2-((4-(((S)-2-oxo-4-(trifluoromethyl)imidazolidin-1-yl)methyl)pyridin-2-yl)amino)ethyl)-1,2,5-oxadiazole-3-carboxamide], the half-maximal inhibitory concentration (IC50) amounted to 25 nM.
For `Cn1nccc1C(=O)N[C@H](C(=O)Nc1cc(CN2C[C@@H](C(F)(F)F)NC2=O)ccn1)[C@H]1CC[C@H](C)CC1` [Example 3, 1-Methyl-N—((S)-1-((1r,4S)-4-methylcyclohexyl)-2-oxo-2-((4-(((S)-2-oxo-4-(trifluoromethyl)imidazolidin-1-yl)methyl)pyridin-2-yl)amino)ethyl)-1H-pyrazole-5-carboxamide], the concentration for half-maximal inhibition (IC50) came to 85 nM.
For the compound `CC(C)n1nccc1C(=O)N[C@@H](C(=O)Nc1cc(CN2C[C@H](C(F)(F)F)NC2=O)ccn1)[C@H]1CC[C@H](C)CC1` [Example 4, 1-isopropyl-N—((S)-1-((1r,4S)-4-methylcyclohexyl)-2-oxo-2-((4-(((S)-2-oxo-4-(trifluoromethyl)imidazolidin-1-yl)methyl)pyridin-2-yl)amino)ethyl)-1H-pyrazole-5-carboxamide], the IC50 worked out at 35 nM.
On to `C[C@H]1CC[C@H]([C@@H](NC(=O)OCc2ccccc2)C(=O)Nc2cc(CN3C[C@H](C(F)(F)F)NC3=O)ccn2)CC1` [Example 5, Benzyl ((S)-1-((1r,4S)-4-methylcyclohexyl)-2-oxo-2-((4-(((S)-2-oxo-4-(trifluoromethyl)imidazolidin-1-yl)methyl)pyridin-2-yl)amino)ethyl)carbamate], for which the IC50 amounted to 179 nM.
With `CC(C)(C)OC(=O)N1CCn2c(ccc2C(=O)N[C@H](C(=O)Nc2cc(CN3C[C@@H](C(F)(F)F)NC3=O)ccn2)[C@H]2CC[C@H](C)CC2)C1` [Example 7, Tert-butyl 6-(((S)-1-((1r,4S)-4-methylcyclohexyl)-2-oxo-2-((4-(((S)-2-oxo-4-(trifluoromethyl)imidazolidin-1-yl)methyl)pyridin-2-yl)amino)ethyl)-carbamoyl)-3,4-dihydropyrrolo[1,2-a]pyrazine-2(1H)-carboxylate], the half-maximal inhibitory concentration (IC50) is 407 nM.
`O=C(N[C@H](C(=O)Nc1cc(CN2C[C@@H](C(F)(F)F)NC2=O)ccn1)C1CCC(F)(F)CC1)c1nonc1C1CC1` [Example 8, 4-cyclopropyl-N-((S)-1-(4,4-difluorocyclohexyl)-2-oxo-2-((4-(((S)-2-oxo-4-(trifluoromethyl)imidazolidin-1-yl)methyl)pyridin-2-yl)amino)ethyl)-1,2,5-oxadiazole-3-carboxamide] displayed an IC50 of 141 nM.

These data come from patent US20260200928A1, “THERAPEUTIC COMPOUNDS” (Sanofi, priority 2022, published 2026).
